Consider 50 compounds from patent publication US9029359B2, “Heteroaryl Btk inhibitors” (Biogen Idec MA, Inc., priority 2009, dated 2015).

The test deals with T1, BTK (Homo sapiens, UniProt Q06187).
T1 construct: purchased Upstate 14-552
Kind of test: In vitro BTK kinase assay: BTK-POLYGAT-LS ASSAY. It is filed as biochemical. As to conditions: ATP 10 uM. An outline of the steps:
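BTK phosphorylation of polyGAT (100 nM final) with ATP at 10 μM final, 10 mM Tris-HCl pH 7.5 kinase buffer, quenched by EDTA after 30 min. Potency given as IC50.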

Molecules are shown by their SMILES. Some results are limits rather than exact numbers.

T1 sequence (Q06187 whole entry): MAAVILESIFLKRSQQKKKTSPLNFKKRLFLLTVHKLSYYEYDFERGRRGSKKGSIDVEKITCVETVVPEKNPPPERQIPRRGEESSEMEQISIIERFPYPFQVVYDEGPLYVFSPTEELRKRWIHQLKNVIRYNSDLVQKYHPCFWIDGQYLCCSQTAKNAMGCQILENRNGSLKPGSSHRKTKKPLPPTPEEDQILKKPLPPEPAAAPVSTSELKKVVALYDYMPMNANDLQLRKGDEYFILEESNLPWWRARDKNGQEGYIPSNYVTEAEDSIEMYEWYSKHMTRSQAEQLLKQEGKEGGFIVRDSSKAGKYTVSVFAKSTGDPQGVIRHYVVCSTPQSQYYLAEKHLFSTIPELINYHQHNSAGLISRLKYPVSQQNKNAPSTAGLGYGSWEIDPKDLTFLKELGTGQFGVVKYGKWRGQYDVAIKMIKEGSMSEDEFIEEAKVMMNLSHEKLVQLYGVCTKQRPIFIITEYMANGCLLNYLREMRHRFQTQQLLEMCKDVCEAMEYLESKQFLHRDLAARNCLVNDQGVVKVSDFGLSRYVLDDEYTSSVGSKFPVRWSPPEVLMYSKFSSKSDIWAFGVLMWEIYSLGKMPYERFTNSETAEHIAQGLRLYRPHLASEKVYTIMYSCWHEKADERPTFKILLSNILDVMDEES

As a reminder, the IC50 is the concentration that gives 50% inhibition. In turn, `O=C(CNc1cccc2[nH]ncc12)NC1CCCN(c2ncnc3[nH]ccc23)C1` (centres unmarked) [Example 76, (2-(1H-indazol-4-ylamino)-N-(1-(7H-pyrrolo[2,3-d]pyrimidin-4-yl)piperidin-3-yl)acetamide)] came in with an IC50 of 100 to 999 nM.

In the case of `O=C(CNC(=O)c1ccc2ccccc2c1)NC1CCCN(c2ncnc3[nH]ccc23)C1` (centres unmarked) [Example 98], the 50% inhibitory concentration (IC50) lay in the range of 100 to 999 nM.

As to `CC[C@@H](Nc1cc(F)cc(Cl)c1)C(=O)N[C@@H]1CCCN(c2ncnc3[nH]ncc23)C1` [Example 129, (R)—N—((R)-1-(1H-pyrazolo[3,4-d]pyrimidin-4-yl)piperidin-3-yl)-2-(3-chloro-5-fluorophenylamino)butanamide], the IC50 was less than 100 nM.

The compound `O=C(CNc1cccc(-c2ccccc2)c1)NC1CCCN(c2ncnc3[nH]ccc23)C1` (centres unmarked) [Example 39, (N-(1-(7H-pyrrolo[2,3-d]pyrimidin-4-yl)piperidin-3-yl)-2-(biphenyl-3-ylamino-)acetamide)] showed a concentration for half-maximal inhibition (IC50) of less than 100 nM.

`O=C(CNc1cccc(Cl)c1)N[C@@H]1CCCN(c2ncnc3[nH]ncc23)C1` [Example 247] gave an IC50 of less than 100 nM.

With `CCC[C@@H](Nc1cc(Cl)cc(Cl)c1)C(=O)N[C@@H]1CCCN(c2ncnc3[nH]ccc23)C1` [Example 178], the IC50 was less than 100 nM.

`O=C(O)Cc1cccc(NCC(=O)N[C@@H]2CCCN(c3ncnc4[nH]ccc34)C2)c1` [Example 389] returned an IC50 of 1000 to 10000 nM.

For `CC1CCN(S(=O)(=O)c2ccccc2NCC(=O)N[C@@H]2CCCN(c3ncnc4[nH]ncc34)C2)CC1` [Example 212], the 50% inhibitory concentration (IC50) is less than 100 nM.

As for `CCN(C(C)C)S(=O)(=O)c1ccccc1NCC(=O)N[C@@H]1CCCN(c2ncnc3[nH]ncc23)C1` [Example 196], the IC50 is less than 100 nM.

For `CN(C)c1cccc(NCC(=O)NC2CCCN(c3ncnc4[nH]ccc34)C2)c1` (centres unmarked) [Example 61, (N-(1-(7H-pyrrolo[2,3-d]pyrimidin-4-yl)piperidin-3-yl)-2-(3-(dimethylamino)phenylamino)acetamide)], the half-inhibitory concentration (IC50) lay within 1000 to 10000 nM.

`O=C(CNC(=O)c1cccc(Cl)c1)NC1CCCN(c2ncnc3[nH]ccc23)C1` (centres unmarked) [Example 93, (N-(2-(1-(7H-pyrrolo[2,3-d]pyrimidin-4-yl)piperidin-3-ylamino)-2-oxoethyl)-3-chlorobenzamide)] gave an IC50 of 1000 to 10000 nM.

With `O=C(CNc1cccc(OC2CCCC2)c1)N[C@@H]1CCCN(c2ncnc3[nH]ccc23)C1` [Example 281], the half-inhibitory concentration (IC50) lay within 100 to 999 nM.

In turn, `N#Cc1ccc(NCC(=O)NC2CCCN(c3ncnc4[nH]ccc34)C2)cc1C(F)(F)F` (centres unmarked) [Example 73, (N-(1-(7H-pyrrolo[2,3-d]pyrimidin-4-yl)piperidin-3-yl)-2-(4-cyano-3-(trifluoromethyl)phenylamino)acetamide)] returned an IC50 of more than 10000 nM.

In turn, `O=C(CNc1cccc2c1CCCC2)NC1CCCN(c2ncnc3[nH]ccc23)C1` (centres unmarked) [Example 41, (N-(1-(7H-pyrrolo[2,3-d]pyrimidin-4-yl)piperidin-3-yl)-2-(5,6,7,8-tetrahydronaphthalen-1-ylamino)acetamide)] displayed an IC50 of less than 100 nM.

`CC1CN(S(=O)(=O)c2ccccc2NCC(=O)N[C@@H]2CCCN(c3ncnc4[nH]ccc34)C2)CC(C)O1` (some centres unmarked) [Example 378]: the IC50 was in the range of 100 to 999 nM.

Turning to `CC(C)Oc1cccc(NCC(=O)N[C@@H]2CCCN(c3ncnc4[nH]ccc34)C2)c1` [Example 315], the concentration for half-maximal inhibition (IC50) lay in the range of 100 to 999 nM.

For the compound `CC(C)(C)c1ccc(NCC(=O)NC2CCCN(c3ncnc4[nH]ccc34)C2)cc1` (centres unmarked) [Example 19, (N-(1-(7H-pyrrolo[2,3-d]pyrimidin-4-yl)piperidin-3-yl)-2-(4-tert-butylphenylamino)acetamide)], the IC50 is more than 10000 nM.

Compound `COc1ccc(NCC(=O)NC2CCCN(c3ncnc4[nH]ccc34)C2)cc1` (centres unmarked) [Example 348] displayed an IC50 of more than 10000 nM.

With `CC1CCC(C)N1S(=O)(=O)c1ccccc1NCC(=O)N[C@@H]1CCCN(c2ncnc3[nH]ncc23)C1` (some centres unmarked) [Example 220], the half-maximal inhibitory concentration (IC50) was less than 100 nM.

The compound `O=C(N[C@@H]1CCCN(c2ncnc3[nH]ccc23)C1)[C@H](Nc1ccccc1)C1CC1` [Example 107, (R)—N—((R)-1-(7H-pyrrolo[2,3-d]pyrimidin-4-yl)piperidin-3-yl)-2-cyclopropyl-2-(phenylamino)acetamide] displayed an IC50 of less than 100 nM.

In turn, `CC(C)CCOc1cccc(NCC(=O)N[C@@H]2CCCN(c3ncnc4[nH]ccc34)C2)c1` [Example 283] registered an IC50 of less than 100 nM.

Turning to `O=C(NC1CN(c2ncnc3[nH]ncc23)CCC1c1ccccc1)[C@H](Nc1cc(F)cc(Cl)c1)C1CC1` (stereo partly drawn) [Example 149, (R)-2-(3-chloro-5-fluorophenylamino)-2-cyclopropyl-N-(4-phenyl-1-(1H-pyrazolo[3,4-d]pyrimidin-4-yl)piperidin-3-yl)acetamide], the IC50 was less than 100 nM.

In turn, `O=C(CNc1ccccc1S(=O)(=O)N1CC2CCCC2C1)N[C@@H]1CCCN(c2ncnc3[nH]ncc23)C1` (some centres unmarked) [Example 227] registered an IC50 of less than 100 nM.

`Cc1ccc(NCC(=O)N[C@@H]2CCCN(c3ncnc4[nH]ccc34)C2)cc1` [Example 426] returned an IC50 of 100 to 999 nM.

The compound `O=C(CNc1ccccc1S(=O)(=O)N1CCCC1)N[C@@H]1CCCN(c2ncnc3[nH]ccc23)C1` [Example 203] gave an IC50 of less than 100 nM.

`O=C(COc1ccccc1)NC1CCCN(c2ncnc3[nH]ccc23)C1` (centres unmarked) [Example 8, (N-(1-(7H-pyrrolo[2,3-d]pyrimidin-4-yl)piperidin-3-yl)-2-phenoxyacetamide)] yielded a concentration for half-maximal inhibition (IC50) of 1000 to 10000 nM.

With `CN(C)Cc1cccc(NCC(=O)NC2CCCN(c3ncnc4[nH]ccc34)C2)c1` (centres unmarked) [Example 345], the IC50 was more than 10000 nM.

In turn, `O=C(CNc1ccccc1Sc1ccccc1)N[C@@H]1CCCN(c2ncnc3[nH]ncc23)C1` [Example 167] returned a half-inhibitory concentration (IC50) of less than 100 nM.

The compound `CNC(=O)c1cnc(NC2CCCN(c3ncnc4[nH]ccc34)C2)s1` (centres unmarked) [Example 344] displayed an IC50 of more than 10000 nM.

On to `CCOc1ccc(OCC)c(NCC(=O)N[C@@H]2CCCN(c3ncnc4[nH]ccc34)C2)c1` [Example 414], for which the IC50 lay within 1000 to 10000 nM.

The compound `O=C(Cc1ccccc1)NCC(=O)NC1CCCN(c2ncnc3[nH]ccc23)C1` (centres unmarked) [Example 96, (N-(1-(7H-pyrrolo[2,3-d]pyrimidin-4-yl)piperidin-3-yl)-2-(2-phenylacetamido)acetamide)] had an IC50 of 1000 to 10000 nM.

As to `Cc1ccc(C)c(NCC(=O)N[C@@H]2CCCN(c3ncnc4[nH]ccc34)C2)c1` [Example 427], the half-inhibitory concentration (IC50) is 1000 to 10000 nM.

`O=C(CNc1ccccc1Cl)N[C@@H]1CCCN(c2ncnc3[nH]ccc23)C1` [Example 236] returned an IC50 of less than 100 nM.

Consider `CC(C)CN(CC(C)C)S(=O)(=O)c1ccccc1NCC(=O)N[C@@H]1CCCN(c2ncnc3[nH]ccc23)C1` [Example 179], for which the concentration for half-maximal inhibition (IC50) was less than 100 nM.

With `O=C(CNc1cccc(N2CCCC2)c1)N[C@@H]1CCCN(c2ncnc3[nH]ccc23)C1` [Example 301], the IC50 fell in the range of 100 to 999 nM.

For the compound `C[C@@H](O)[C@@H](Nc1cc(F)cc(Cl)c1)C(=O)N[C@@H]1CCCN(c2ncnc3[nH]ccc23)C1` [Example 307], the IC50 was in the range of 100 to 999 nM.

`O=C(CNc1cc(F)cc(Cl)c1)N[C@@H]1CCCN(c2ncnc3[nH]ncc23)C1` [Example 385] returned a concentration for half-maximal inhibition (IC50) of less than 100 nM.

`C[C@H]1CCN(c2ncnc3[nH]ncc23)C[C@@H]1NC(=O)[C@H](Nc1cc(Cl)cc(Cl)c1)C1CC1` [Example 152, (R)-2-cyclopropyl-2-(3,5-dichlorophenylamino)-N-((3R,4S)-4-methyl-1-(1H-pyrazolo[3,4-d]pyrimidin-4-yl)piperidin-3-yl)acetamide] showed an IC50 of less than 100 nM.

`Cn1cccc(NCC(=O)NC2CCCN(c3ncnc4[nH]ccc34)C2)c1=O` (centres unmarked) [Example 342] had an IC50 of more than 10000 nM.

For `O=C(CNC1c2ccccc2-c2ccccc21)N[C@@H]1CCCN(c2ncnc3[nH]ccc23)C1` [Example 459], the 50% inhibitory concentration (IC50) was 1000 to 10000 nM.

Consider `CC(C)(Nc1ccccc1)C(=O)N[C@@H]1CCCN(c2ncnc3[nH]ccc23)C1` [Example 128, (R)—N-(1-(7H-pyrrolo[2,3-d]pyrimidin-4-yl)piperidin-3-yl)-2-methyl-2-(phenylamino)propanamide], for which the 50% inhibitory concentration (IC50) was 1000 to 10000 nM.

In the case of `CC(C)Nc1cc(N2CCC[C@@H](NC(=O)CNc3cc(Cl)cc(Cl)c3)C2)ncn1` [Example 142, (R)-2-(3,5-dichlorophenylamino)-N-(1-(6-(isopropylamino)pyrimidin-4-yl)piperidin-3-yl)acetamide], the half-inhibitory concentration (IC50) lay within 1000 to 10000 nM.

The compound `O=C(CNc1cc(F)c(F)c(F)c1)N[C@@H]1CCCN(c2ncnc3[nH]ccc23)C1` [Example 285] showed an IC50 of 100 to 999 nM.

`O=C(CNc1ccccc1Cl)NC1CCCN(c2ncnc3[nH]ccc23)C1` (centres unmarked) [Example 20, (N-(1-(7H-pyrrolo[2,3-d]pyrimidin-4-yl)piperidin-3-yl)-2-(2-chlorophenylamino)acetamide)] had a concentration for half-maximal inhibition (IC50) of 100 to 999 nM.

`CC(C)c1ccccc1N[C@@H](C(=O)N[C@@H]1CCCN(c2ncnc3[nH]ncc23)C1)C1CC1` [Example 234] returned an IC50 of 100 to 999 nM.

As for `COc1ccc(C)c(NCC(=O)N[C@@H]2CCCN(c3ncnc4[nH]ccc34)C2)c1` [Example 451], the IC50 was in the range of 1000 to 10000 nM.

With `O=C(NC1CCCN(c2ncnc3[nH]ccc23)C1)C1NCc2ccccc21` (centres unmarked) [Example 361], the IC50 is more than 10000 nM.

Consider `O=C(CNc1cccc(SC(F)(F)F)c1)NC1CCCN(c2ncnc3[nH]ccc23)C1` (centres unmarked) [Example 82, (N-(1-(7H-pyrrolo[2,3-d]pyrimidin-4-yl)piperidin-3-yl)-2-(3-(trifluoromethylthio)phenylamino)acetamide)], for which the 50% inhibitory concentration (IC50) is 100 to 999 nM.

`CC(C)(C)[C@@H](Nc1ccccc1)C(=O)N[C@@H]1CCCN(c2ncnc3[nH]ccc23)C1` [Example 108, (R)—N—((R)-1-(7H-pyrrolo[2,3-d]pyrimidin-4-yl)piperidin-3-yl)-3,3-dimethyl-2-(phenylamino)butanamide]: the concentration for half-maximal inhibition (IC50) fell in the range of 100 to 999 nM.

`CC[C@@H](Nc1cc(Cl)cc(Cl)c1)C(=O)N[C@@H]1CCCN(c2ncnc3[nH]ncc23)C1` [Example 130, (R)—N—((R)-1-(1H-pyrazolo[3,4-d]pyrimidin-4-yl)piperidin-3-yl)-2-(3,5-dichlorophenylamino)butanamide] gave an IC50 of less than 100 nM.
